Data taken from patent publication US10287234B2, “Triglyceride and use thereof” (NITTO PHARMACEUTICAL INDUSTRIES, LTD., priority 2015, dated 2019).

assay: State (liquid or solid) at standard temperature by visual observation; assay type: physicochemical
Description: Whether compounds (I) of the present invention of Examples 1-3, trilinolein of Comparative Example 1 and HYA of Comparative Example 2 are liquid or solid at standard temperature (about 20° C.) was confirmed by visual observation.

Molecule | State at standard temperature (about 20° C.)
CCCCC/C=C\C/C=C\CCCCCCCC(=O)OCC(COC(=O)CCCCCCCCC(O)C/C=C\CCCCC)OC(=O)CCCCCCC/C=C\C/C=C\CCCCC (stereo not drawn) [Ex. 1, Di(cis, cis-9,12-octadecadienoyl)(10-hydroxy-cis-12-octadecenoyl)glycerol] | liquid
CCCCC/C=C\C/C=C\CCCCCCCC(=O)OC(COC(=O)CCCCCCCCC(O)C/C=C\CCCCC)COC(=O)CCCCCCCCC(O)C/C=C\CCCCC (stereo not drawn) [Ex. 2, Di(10-hydroxy-cis-12-octadecenoyl)(cis, cis-9,12-octadecadienoyl)glycerol] | liquid

Next, values leading:

State at standard temperature (about 20° C.) | Molecule
liquid | CCCCC/C=C\C/C=C\CCCCCCCC(=O)OCC(COC(=O)CCCCCCC/C=C\C/C=C\CCCCC)OC(=O)CCCCCCC/C=C\C/C=C\CCCCC [compound 1, Trilinolein, reference compound]
solid | CCCCC/C=C\CC(O)CCCCCCCCC(=O)O (stereo not drawn) [compound 2, 10-Hydroxy-cis-12-octadecenoic Acid, reference compound]
liquid | Tri(10-hydroxy-cis-12-octadecenoyl)glycerol [Ex. 3]
